# Results taken from patent publication US20040014772A1, “Compositions and methods for treating glomerular disorders” (priority 2000, published 2004).
# “Also recorded” adds a separate entry of the source.
# Legend:
# [1] = Weight loss/gain of rats before and after treatments (PAN-induced nephrotic syndrome); format: in vivo, rat; settings: for Body weight After Treatment (day7): rats, day 7, PAN 7.5 mg/100 g BW iv, CM 120 mg/kg ip twice a day, PB 400 mg/kg ip every other day, means ± SE
# Procedure: Two different general CYP inhibitors were used, cimetidine (CM) and piperonyl butoxide (PB). Cimetidine has imidazole and cyano groups that inhibit CYP by interacting with the heme moiety. […] To determine the effect of the CYP inhibitors in PAN- induced nephrotic syndrome, CM (120 mg/kg BW) was administered intraperitoneal 1 h prior to PAN injection and then twice a day. Piperonyl butoxide (PB) which yields a metabolite that binds to the heme moiety of CYP, was given intraperitoneal (400 mg/kg BW) 4h before PAN injection and then every other day.
# Also, the CYP2B1 inhibitor piperine (PIP), a methylenedioxyphenyl compound found in black and red pepper was used. PIP is believed to inhibit CYP2B1 by forming an inhibitory complex therewith. PIP was administered at a dose of 85 mg/kg of body weight (BW) by an intraperitoneal injection 16 hours prior to PAN injection and then once a day.
# ferritin = test: Ferritin immunohistochemistry in kidney of PAN-treated rats; format: in vivo, rat
# Procedure: Kidney cortical sections were fixed in 10% buffered formalin for 6 hours and embedded in paraffin. After deparaffinization and antigen retrieval, the sections were immunolabeled and visualized according to an avidin-biotin complex (ABC) method. The primary antibody for detection of ferritin was polyclonal anti-Ferritin (L subunit) antibody (605022; Boehringer Mannheim Corp., Indianapolis, Ind., USA).
# [2] = test system: glomeruli of PAN-treated rats; test: Bleomycin detectable iron assay in glomeruli of PAN-treated rats; format: in vivo, rat; settings: for bleomycin detectable iron content in the glomeruli: PAN-treated rats, CM 120 mg/kg, PB 400 mg/kg or PIP 85 mg/kg ip, 6 hours, day 4, day 7
# Procedure: Glomeruli were isolated by a combination of sieving and differential centrifugation as described in Ueda et al, 19996, Kidney Intl. 49:370-373, and Baliga et al, 1992, Am. J. Physiol. 263:214-221. Glomeruli isolated from two rats were pooled together (as N of 1) for the isolation of microsomes. Iron capable of catalyzing free radical reactions was measured by bleomycin detectable iron assay as described by Gutteridge et al, 1981, Biochem. J. 199:263-265, Gutteridge et al, 1982, Biochem. J. 206:605-609, Baliga et al, 1993, Bioche.
# CYP2B1 = CYP2B1 content in glomeruli (immunohistochemistry, western blot); format: in vivo, rat; settings: PAN-treated rats, 6 hours to day 7
# Source text: The microsome fraction obtained was subjected to SDS-page electrophoresis in 1 mm slab gels. The separated forms were transferred from gel to a nitrocellulose sheet using a Mini Trans-blot electroblotting unit. The primary antibodies were monoclonal anti-HO-1 (OSA-111, StressGen, Victoria, BC, Canada) and monoclonal anti-CYP2B1 (PM25, Oxford Biomedical Research, Oxford, Mich., USA). Subsequent to primary and secondary antibody (peroxidase-labeled) treatment, the blots were visualized by enhanced chemiluminescence method. Kidney cortical sections were fixed in 10% buffered formalin for 6 hours and embedded in paraffin. After deparaffinization and antigen retrieval, the sections were immunolabeled and visualized according to an avidin-biotin complex (ABC) method. The primary antibody for detection of ferritin was polyclonal anti-Ferritin (L subunit) antibody (605022; Boehringer Mannheim Corp., Indianapolis, Ind., USA).
# HO-1 = HO-1 induction in GEC exposed to PAN (western blot); format: cell-based, rat; settings: PIP 0.2 mM, CM 2 mM, pyruvate 10 mM
# Source text: The microsome fraction obtained was subjected to SDS-page electrophoresis in 1 mm slab gels. The separated forms were transferred from gel to a nitrocellulose sheet using a Mini Trans-blot electroblotting unit. The primary antibodies were monoclonal anti-HO-1 (OSA-111, StressGen, Victoria, BC, Canada) and monoclonal anti-CYP2B1 (PM25, Oxford Biomedical Research, Oxford, Mich., USA). Subsequent to primary and secondary antibody (peroxidase-labeled) treatment, the blots were visualized by enhanced chemiluminescence method.
# cytochrome P450 = test: Cytochrome P450 content of microsome fraction (CO difference spectrum); settings: for CYP content in kidney / glomeruli: PAN-treated rats, day 7
# Procedure: Male Sprague-Dawley rats weighing 200-250 g were injected either saline or a single intravenous injection of PAN (Sigma, St. Louis) in a dose of 7.5 mg/100g BW (day 0) as described in Ueda et al, 19996, Kidney Intl. 49:370-373. Animals were housed in separate metabolic cages and allowed free access to rat chow (Purina). Daily urine protein excretion was determined and animals were sacrificed on day 7. Blood was obtained for the measurement of serum albumin and the evaluation of renal function as measured by blood urea nitrogen (BUN) and plasma creatinine. Cell fraction of the glomeruli was prepared for bleomycin detectable iron assay. The microsome fraction was utilized for the measurement of CYP content.
# [3] = test system: glomerular epithelial cells GEC; test: PAN induced hydroxyl radical formation in GEC (deoxyribose degradation); format: cell-based, rat; settings: PAN 1.5 mM 1 h; preincubation CM 2 mM, PB 25 μM, RN 1 mM, PIP 0.2 mM, pyruvate 10 mM
# Procedure: 2-deoxy-D-ribose in a final concentration of 3 mM was added to the medium just prior to the incubation. At the end of the incubation, the incubation medium was collected for the measurement of hydroxyl radical formation by deoxyribose degradation method as in Baliga et al (Kidney Intl. 1996, 50:1118-1124.).
# Confluent GEC monolayer was washed twice with HBSS and then incubated with 1.5 mM PAN in HBSS for a period of time before substantial cell killing occurs (1 h) at 37° C. 2-deoxy-D-ribose in a final concentration of 3 mM was added to the medium just prior to the incubation. At the end of the incubation, the incubation medium was collected for the measurement of hydroxyl radical formation by deoxyribose degradation method described in Baliga et al, 1996, Kidney Int. 50:1118-1124. To determine the effect of CYP inhibitors on the hydroxyl radical formation, GEC monolayers were preincubated with CM, RN or PB as mentioned above.
# [4] = test system: glomerular epithelial cells GEC; test: Intracellular H2O2 generation in GEC (DCF fluorescence); format: cell-based, rat; settings: PAN 1.5 mM; CM, PIP, RN or pyruvate 10 mM
# Procedure: The principle of this method is that the oxidation of 2′,7′-dichlorofluorescin-diacetate (DCFH-DA) in the presence of H2O2 produces the highly fluorescent compound 2′,7′-dichlorofluroescin (DCF) which can be measured by fluorometer. The intracellular generation of H2O2 in GEC was tested utilizing the microplate assay procedure described by Rosenkranz et al (J. Immunol. Methods, 1992, 156:39-45.). In brief, confluent GEC were harvested by trypsin and suspended in HBSS. After an equilibration period at 37° C. with constant shaking, they were transferred to a microplate (2×10^5-1×10^6 cells/well) and then incubated at 37° C. with equal volumes of DCFH-DA (10 μl/ml) and PAN (1.5 mM) for the planned time period. At the end of the incubation, the fluorescent intensity of the cell suspension was read using a fluorescence spectrophotometer (wavelength 485/535 nm) capable of reading microtiter plates.
Compound,Body weight After Treatment (day7) [1],ferritin content in the glomeruli and the tubules (ferritin),bleomycin detectable iron content in the glomeruli [2],CYP2B1 content in the glomeruli (CYP2B1),HO-1 induction in GEC (HO-1),CYP content in kidney / glomeruli (cytochrome P450),hydroxyl radical formation in GEC [3],intracellular H2O2 generation in GEC [4],ascites and weight gain at the time of sacrifice ([1]; compared to control animals and those treated with CYP inhibitors),"catalytic iron content in the glomeruli (bleomycin detectable iron assay) ([2]; rats 7 days after PAN 7.5 mg/100 g BW iv, control value 39, N=3, P<0.01)",CYP content in the liver (cytochrome P450; PAN treated vs untreated rats)
"CN/C(=N/CCSCc1nc[nH]c1C)NC#N [CM, cimetidine]",253 ± 9 g,markedly reduced the up-regulation,significantly prevent the increase; also recorded: significantly prevented this increase,preserved,significantly prevented the induction,significantly preserve,markedly reduce; also recorded: significantly reduced,significantly decreased,–,–,–
"CN(C)c1ncnc2c1ncn2[C@@H]1O[C@H](CO)[C@@H](N)[C@H]1O [PAN, puromycin aminonucleoside]",291 ± 8 g,significant increase,markedly elevated,marked decrease,marked induction,not detectable,significant increase; also recorded: significant production,marked increase,developed ascites and significant weight gain,160 nmol/mg protein,no difference
